Where a name gives a salt, the structure may show the parent alone.
system: HCV RNA replication (replicon cell lines Huh-7, 5.2 and ET); assay: Cell-Based Luciferase Reporter HCV RNA Replication Assay; settings: Hepatitis C virus, Huh-7, 96 h, Huh-7, 5.2 or ET replicon cells, luciferase counts after 4 days incubation; read-out: IC50

First: CC1CCC(C(=O)N(c2cc(C3=CCCCCC3)sc2C(=O)O)C2CCCCC2)CC1 (stereo not drawn) [Compound 46, 5-cyclohept-1-enyl-3-[cyclohexyl-(4-trans-methyl-cyclohexanecarbonyl)-amino]-thiophene-2-carboxylic acid]
Second: C[C@H]1CC[C@H](C(=O)N(c2cc(C3=CCCCC3)sc2C(=O)O)C2CC2)CC1 [Compound 51, 5-cyclohex-1-enyl-3-[cyclopropyl-(trans-4-methyl-cyclohexanecarbonyl)-amino]-thiophene-2-carboxylic acid]
The IC50 of the first is lower: < 5 µM for the first, 5 to 25 µM for the second. The first is the more potent here.

CC1CC=C(c2cc(N(C(=O)C3CCC(C)CC3)C3CCCCC3)c(C(=O)O)s2)CC1 (stereo not drawn) [Compound 47, RS-3-[cyclohexyl-(4-trans-methyl-cyclohexanecarbonyl)-amino]-5-(4-methyl-cyclohex-1-enyl)-thiophene-2-carboxylic acid] and C[C@H]1CC[C@H](C(=O)N(c2cc(C3=CCCCC3)sc2C(=O)O)[C@H]2CC[C@H](C)CC2)CC1 [Compound 52, 5-cyclohex-1-enyl-3-[(trans-4-methyl-cyclohexanecarbonyl)-(trans-4-methyl-cyclohexyl)-amino]-thiophene-2-carboxylic acid] cannot be ordered by IC50: < 5 µM for the first, < 5 µM for the second.

C[C@H]1CC[C@H](C(=O)N(c2cc(C3=CCCCC3)sc2C(=O)O)[C@H]2CC[C@H](n3cncn3)CC2)CC1 [Compound 48, 5-cyclohex-1-enyl-3-[(trans-4-methylcyclohexanecarbonyl)-(trans-4-[1,2,4]triazol-1-yl-cyclohexyl)-amino]-thiophene-2-carboxylic acid; hydrochloride] and C[C@H]1CC[C@H](C(=O)N(c2cc(C3=CCCCC3)sc2C(=O)O)[C@H]2CC[C@@H](C)CC2)CC1 [Compound 53, 5-cyclohex-1-enyl-3-[(trans-4-methyl-cyclohexanecarbonyl)-(cis-4-methyl-cyclohexyl)-amino]-thiophene-2-carboxylic acid] cannot be ordered by IC50: < 5 µM for the first, < 5 µM for the second.

C[C@H]1CC[C@H](C(=O)N(c2cc(C3=CCCCC3)sc2C(=O)O)[C@H]2CC[C@@H](C#N)CC2)CC1 [Compound 49, 3-[(cis-4-cyanocyclohexyl)-(trans-4-methylcyclohexanecarbonyl)-amino]-5-cyclohex-1-enyl-thiophene-2-carboxylic acid] and C[C@H]1CC[C@H](C(=O)N(c2cc(C3=CCCCC3)sc2C(=O)O)[C@H]2CC[C@H](C#N)CC2)CC1 [Compound 50, 3-[(trans-4-cyanocyclohexyl)-(trans-4-methyl-cyclohexanecarbonyl)-amino]-5-cyclohex-1-enyl-thiophene-2-carboxylic acid] cannot be ordered by IC50: < 5 µM for the first, < 5 µM for the second.

C[C@H]1CC[C@H](C(=O)N(c2cc(C3=CCCCC3)sc2C(=O)O)[C@H]2CC[C@@H](F)CC2)CC1 [Compound 57, 5-cyclohex-1-enyl-3-[(cis-4-fluoro-cyclohexyl)-(trans-4-methyl-cyclohexanecarbonyl)-amino]-thiophene-2-carboxylic acid] and C[C@H]1CC[C@H](C(=O)N(c2cc(C3=CCCCC3)sc2C(=O)O)[C@H]2CC[C@H](F)CC2)CC1 [Compound 70, 5-cyclohex-1-enyl-3-[(trans-4-fluoro-cyclohexyl)-(trans-4-methyl-cyclohexanecarbonyl)-amino]-thiophene-2-carboxylic acid] cannot be ordered by IC50: < 5 µM for the first, < 5 µM for the second.

CC1=CCCCC1c1cc(N(C(=O)C2CCC(C)CC2)C2CCC(=O)CC2)c(C(=O)O)s1 (stereo not drawn) [Compound 58, RS-3-[(4-trans-methyl-cyclohexanecarbonyl)-(4-oxo-cyclohexyl)-amino]-5-(2-methyl-cyclohex-2-enyl)-thiophene-2-carboxylic acid] and CC1CCC(C(=O)N(c2cc(C3CCC(=O)CC3)sc2C(=O)O)C2CCC(O)CC2)CC1 (stereo not drawn) [Compound 86, 3-[(4-trans-hydroxy-cyclohexyl)-(4-trans-methyl-cyclohexanecarbonyl)-amino]-5-(4-oxo-cyclohexyl)-thiophene-2-carboxylic acid] fall in the same range of IC50: 5 to 25 µM for the first, 5 to 25 µM for the second.

C[C@H]1CC[C@H](C(=O)N(c2cc(C3=CCCCC3)sc2C(=O)O)[C@H]2CC[C@H](c3nnn[nH]3)CC2)CC1 [Compound 62, 5-cyclohex-1-enyl-3-{(trans-4-methyl-cyclohexanecarbonyl)-[trans-4-(1h-tetrazol-5-yl)-cyclohexyl]-amino}-thiophene-2-carboxylic acid] and CC1CCC(C(=O)N(c2cc(C3=CCCCC3)sc2C(=O)O)C2CC[S+]([O-])CC2)CC1 (stereo not drawn) [Compound 63, 5-cyclohex-1-enyl-3-[(trans-4-methyl-cyclohexanecarbonyl)-(1-oxo-hexahydro-1-thiopyran-4-yl)-amino]-thiophene-2-carboxylic acid] cannot be ordered by IC50: < 5 µM for the first, < 5 µM for the second.

CC1(C)CCC(c2cc(N(C(=O)[C@H]3CC[C@H](C)CC3)[C@H]3CC[C@H](O)CC3)c(C(=O)O)s2)CC1 [Compound 64, 5-(4,4-dimethyl-cyclohexyl)-3-[(trans-4-hydroxy-cyclohexyl)-(trans-4-methyl-cyclohexanecarbonyl)-amino]-thiophene-2-carboxylic acid] and CC1(C)CCC(c2cc(N(C(=O)[C@H]3CC[C@H](C)CC3)[C@H]3CC[C@H](F)CC3)c(C(=O)O)s2)CC1 [Compound 83, 5-(4,4-dimethyl-cyclohexyl)-3-[(trans-4-fluoro-cyclohexyl)-(trans-4-methyl-cyclohexanecarbonyl)-amino]-thiophene-2-carboxylic acid] cannot be ordered by IC50: < 5 µM for the first, < 5 µM for the second.

CC1CCC(C(=O)N(c2cc(C3=CCCCC3)sc2C(=O)O)C2CCc3ccccc3C2)CC1 (stereo not drawn) [Compound 66, RS-5-cyclohex-1-enyl-3-[(4-trans-methyl-cyclohexanecarbonyl)-(1,2,3,4-tetrahydro-naphthalen-2-yl)-amino]-thiophene-2-carboxylic acid] and COc1ccc2c(c1)CC(N(C(=O)C1CCC(C)CC1)c1cc(C3=CCCCC3)sc1C(=O)O)CC2 (stereo not drawn) [Compound 67, RS-5-cyclohex-1-enyl-3-[(7-methoxy-1,2,3,4-tetrahydro-naphthalen-2-yl)-(4-trans-methyl-cyclohexanecarbonyl)-amino]-thiophene-2-carboxylic acid] cannot be ordered by IC50: < 5 µM for the first, < 5 µM for the second.

CNC(=O)C1CCC(N(C(=O)C2CCC(C)CC2)c2cc(C3=CCCCC3)sc2C(=O)O)CC1C(=O)O (stereo not drawn) [Compound 68, 3-[(3-trans-carboxy-4-trans-methylcarbamoyl-cyclohexyl)-(4-trans-methyl-cyclohexanecarbonyl)-amino]-5-cyclohex-1-enyl-thiophene-2-carboxylic acid] and CC1CCC(C(=O)N(c2cc(C3=CCCCC3)sc2C(=O)O)C2CCC3C(=O)N(C)C(=O)C3C2)CC1 (stereo not drawn) [Compound 72, RS-5-cyclohex-1-enyl-3-[(trans-methyl-cyclohexanecarbonyl)-(2-methyl-1,3-dioxo-octahydro-isoindol-5-yl)-amino]-thiophene-2-carboxylic acid] cannot be ordered by IC50: < 5 µM for the first, < 5 µM for the second.

CC1CCC(C(=O)N(c2cc(C3=CCCCC3)sc2C(=O)O)C2CCC3(CC2)CN(C)C(=O)N3C)CC1 (stereo not drawn) [Compound 73, 5-cyclohex-1-enyl-3-[cis(1,3-dimethyl-2-oxo-1,3-diaza-spiro[4.5]dec-8-yl)-(trans-4-methyl-cyclohexanecarbonyl)-amino]-thiophene-2-carboxylic acid] and CC1CCC(C(=O)N(c2cc(C3=CCCCC3)sc2C(=O)O)C2CCC3(CC2)CC(=O)N(C)C3)CC1 (stereo not drawn) [Compound 84, 5-cyclohex-1-enyl-3-[(trans-4-methyl-cyclohexanecarbonyl)-cis-(2-methyl-3-oxo-2-aza-spiro[4.5]dec-8-yl)-amino]-thiophene-2-carboxylic acid] cannot be ordered by IC50: < 5 µM for the first, < 5 µM for the second.

C[C@H]1CC[C@H](C(=O)N(c2cc([C@H]3CC[C@H](C)CC3)sc2C(=O)O)[C@H]2CC[C@H](O)CC2)CC1 [Compound 77, 3-[(trans-4-hydroxy-cyclohexyl)-(trans-4-methyl-cyclohexanecarbonyl)-amino]-5-(trans-4-methyl-cyclohexyl)-thiophene-2-carboxylic acid] and C[C@H]1CC[C@H](C(=O)N(c2cc([C@H]3CC[C@@H](C)CC3)sc2C(=O)O)[C@H]2CC[C@H](O)CC2)CC1 [Compound 78, 3-[(trans-4-hydroxy-cyclohexyl)-(trans-4-methyl-cyclohexanecarbonyl)-amino]-5-(cis-4-methyl-cyclohexyl)-thiophene-2-carboxylic acid] cannot be ordered by IC50: < 5 µM for the first, < 5 µM for the second.

With CC1CCC(C(=O)N(c2cc(C3=CCCCC3)sc2C(=O)O)C2CCC3(CC2)CNC(=O)C3)CC1 (stereo not drawn) [Compound 80, 5-cyclohex-1-enyl-3-[(trans-4-methyl-cyclohexanecarbonyl)-cis-(3-oxo-2-aza-spiro[4.5]dec-8-yl)-amino]-thiophene-2-carboxylic acid] the IC50 was < 5 µM.

same assay, conditions: Huh-7, 5.2 or ET replicon cells, luciferase counts after 4 days incubation; read-out: IC50

CC1CCC(C(=O)N(c2cc(C3=CCCCC3)sc2C(=O)O)C2CCC(C(C)(C)C)CC2)CC1 (stereo not drawn) [Compound 45, 3-[(4-cis-tert-butyl-cyclohexyl)-(4-trans-methyl-cyclohexanecarbonyl)-amino]-5-cyclohex-1-enyl-thiophene-2-carboxylic acid] and CC1CCC(C(=O)N(c2cc(C3=CCCC(C)C3)sc2C(=O)O)C2CCC(O)CC2)CC1 (stereo not drawn) [Compound 61, RS-3-[(4-trans-hydroxy-cyclohexyl)-(4-trans-methyl-cyclohexanecarbonyl)-amino]-5-(5-methyl-cyclohex-1-enyl)-thiophene-2-carboxylic acid] cannot be ordered by IC50: < 5 µM for the first, < 5 µM for the second.

CC1CCC(C(=O)N(c2cc(C3=CCCCC3)sc2C(=O)O)C2CCC3(CC2)CN(C)C(=O)N3C)CC1 (stereo not drawn) [Compound 74, 5-cyclohex-1-enyl-3-[trans-(1,3-dimethyl-2-oxo-1,3-diaza-spiro[4.5]dec-8-yl)-(trans-4-methyl-cyclohexanecarbonyl)-amino]-thiophene-2-carboxylic acid] and CC1CCC(C(=O)N(c2cc(C3=CCCCC3)sc2C(=O)O)C2CCC3(CC2)CNC(=O)C3)CC1 (stereo not drawn) [Compound 81, 5-cyclohex-1-enyl-3-[(trans-4-methyl-cyclohexanecarbonyl)-trans-(3-oxo-2-aza-spiro[4.5]dec-8-yl)-amino]-thiophene-2-carboxylic acid] cannot be ordered by IC50: < 5 µM for the first, < 5 µM for the second.

Reference: US8674118B2, “Compounds and methods for the treatment or prevention of flavivirus infections” (priority 2005, dated 2014)
